Source: US20230146455A1, “TREATMENT OF INFLAMMATORY DISEASES WITH PEPTIDES AND PHARMACEUTICAL COMPOSITIONS” (Yuyu Pharma, Inc., priority 2020, published 2023)
Several values for one entry are separate records, joined by “and”; a condition that tells them apart may be missing. Equal values may be shown once. Where a SMILES comes first, the peptide text is derived from it. [ ]: non-standard residue; d: D form. Hyp = O=C(O)[C@@H]1C[C@@H](O)CN1

Key:
IL-6 = assay: Example 8 main study Luminex, LPS hPBMCs: IL-6; type: cell-based, human; settings: for IL-6 Concentration: single replicates (1st, 2nd, 3rd)
Experimental: (§1) Human PBMCs were pretreated with YY-101, YDE-011, YDE-043 or reference compound; Xiidra® at various concentration (ranging from […] to 500 nM) for 2 h before stimulation. An equal volume of 0.5% DMSO was used as a vehicle control. Then, the cells were treated with LPS at 5 ug/ml, which was selected based on the pilot study. The supernatants from treated cells were harvested at 24 h and placed in a 96 well for Luminex cytokine & chemokine profiling using a Luminex 200 multiplex assay (Luminex; R&D system, USA).
(§2) The main study arm with triplicate wells per group in a 24-well plate: • 1. Blank • 2. PBMC: 0.5% DMSO • 3. PBMC+LPS (5 ug/ml) • 4. PBMC+YY-101 500 nM • 5. PBMC+YY-101 50 nM • 6. PBMC+YY-101 5 nM • 7. PBMC+YY-101 0.5 nM • 8. PBMC+LPS (5 ug/ml)+Xiidra® 500 nM • 9. PBMC+LPS (5 ug/ml)+Xiidra® 50 nM • 10. PBMC+LPS (5 ug/ml)+Xiidra® 5 nM • 11. PBMC+LPS (5 ug/ml)+Xiidra® 0.5 nM • 12. PBMC+LPS (5 ug/ml)+Xiidra® 0.05 nM • 13. PBMC+LPS (5 ug/ml)+Xiidra® 0.005 nM • 14. PBMC+LPS (5 ug/ml)+YY-101 500 nM • 15. PBMC+LPS (5 ug/ml)+YY-101 50 nM • 16. PBMC+LPS (5 ug/ml)+YY-101 5 nM • 17. PBMC+LPS (5 ug/ml)+YY-101 0.5 nM • 18. PBMC+LPS (5 ug/ml)+YY-101 0.05 nM • 19. PBMC+LPS (5 ug/ml)+YY-101 0.005 nM • 20. PBMC+LPS (5 ug/ml)+YDE-011 500 nM • 21. PBMC+LPS (5 ug/ml)+YDE-011 50 nM • 22. PBMC+LPS (5 ug/ml)+YDE-011 5 nM • 23. PBMC+LPS (5 ug/ml)+YDE-011 0.5 nM • 24. PBMC+LPS (5 ug/ml)+YDE-011 0.05 nM • 25. PBMC+LPS (5 ug/ml)+YDE-011 0.005 nM • 26. PBMC+LPS (5 ug/ml)+YDE-043 500 nM • 27. PBMC+LPS (5 ug/ml)+YDE-043 50 nM • 28. PBMC+LPS (5 ug/ml)+YDE-043 5 nM • 29. PBMC+LPS (5 ug/ml)+YDE-043 0.5 nM • 30. PBMC+LPS (5 ug/ml)+YDE-043 0.05 nM • 31. PBMC+LPS (5 ug/ml)+YDE-043 0.005 nM
(§3) Multiplex assay was used to measure 30 cytokines and chemokines. The 1:200 diluted cell supernatant and serial dilution of the standard were dispensed into a 96 well plate at 50 ul/well. Then, the pre-mixed cocktail of antibody-coated magnetic beads was dispensed at 50 ul/well and incubated at room temperature for 2 h in a horizontal orbital microplate shaker at 800±500 rpm. The beads were washed using a magnetic device to prevent loss. The biotin-antibody was dispensed in 50 ul of each well and incubated at room temperature for 1 h in a shaker at 800±500 rpm. After washing, streptavidin-PE was added at 50 ul/well and incubated at room temperature for 30 min in a shaker under the same conditions. Finally, after washing, wash buffer (100 ul/well) was added to the plate and incubated in a shaker for 2 min. The Luminex™ 200 setting were set according to the manufacturer's protocol. The data was calculated with a standard five-parameter logistic nonlinear regression analysis of the data (xPonent software 4.2, USA). Results were presented as concentration (ng/ml or pg/ml).

IL-10 = assay: Example 8 main study Luminex, LPS hPBMCs: IL-10; type: cell-based, human; settings: for IL-10 Concentration: individual replicates; for IL-10 Concentration (pg/ml), Mean: mean of replicates
Experimental: as §1, §2, §3

[1] = PBMC + LPS(5 ug/ml) + test article 0.005 nM
[2] = PBMC + LPS(5 ug/ml) + test article 0.05 nM
[3] = PBMC + LPS(5 ug/ml) + test article 0.5 nM
[4] = PBMC + LPS(5 ug/ml) + test article 5 nM
[5] = PBMC + LPS(5 ug/ml) + test article 50 nM
[6] = PBMC + LPS(5 ug/ml) + test article 500 nM
[7] = at as low as 5 μM, LPS 5 ug/mL 24 hrs

## CC(C)C[C@H](NC(=O)[C@H](CCC(N)=O)NC(=O)CNC(=O)[C@@H]1C[C@@H](O)CN1)C(=O)NCC(=O)O [YDE-043] (H-[Hyp]GQLG-OH; N-terminus and C-terminus assumed)
IL-6; [1]
  IL-6 Concentration, Mean: 17678.1 pg/mL
  IL-6 Concentration: 15726.2 pg/mL and 16772.5 pg/mL and 20535.6 pg/mL
IL-6; [2]
  IL-6 Concentration, Mean: 14253.4 pg/mL
  IL-6 Concentration: 13386.9 pg/mL and 14716.3 pg/mL and 14657.0 pg/mL
IL-6; [3]
  IL-6 Concentration, Mean: 14811.5 pg/mL
  IL-6 Concentration: 15322.2 pg/mL and 15084.6 pg/mL and 14027.7 pg/mL
IL-6; [4]
  IL-6 Concentration, Mean: 16507.0 pg/mL
  IL-6 Concentration: 16380.0 pg/mL and 17224.5 pg/mL and 15916.4 pg/mL
IL-6; [5]
  IL-6 Concentration, Mean: 16067.3 pg/mL
  IL-6 Concentration: 16962.8 pg/mL and 16570.3 pg/mL and 14668.8 pg/mL
IL-6; [6]
  IL-6 Concentration, Mean: 14209.8 pg/mL
  IL-6 Concentration: 13873.4 pg/ml (2×) and 14882.6 pg/ml
IL-6; [7]
  LPS-induced IL-6 (in words): significantly reduced
IL-10; [1]
  IL-10 Concentration: 651.0 pg/mL and 806.6 pg/mL and 1134.2 pg/mL
  IL-10 Concentration (pg/ml), Mean: 863.9 pg/mL
IL-10; [2]
  IL-10 Concentration: 436.9 pg/mL and 518.2 pg/mL and 381.9 pg/mL
  IL-10 Concentration (pg/ml), Mean: 445.7 pg/mL
IL-10; [3]
  IL-10 Concentration: 436.9 pg/mL and 491.3 pg/mL and 624.7 pg/mL
  IL-10 Concentration (pg/ml), Mean: 517.6 pg/mL
IL-10; [4]
  IL-10 Concentration: 545.0 pg/mL and 637.8 pg/mL and 558.4 pg/mL
  IL-10 Concentration (pg/ml), Mean: 580.4 pg/mL
IL-10; [5]
  IL-10 Concentration: 571.7 pg/mL and 598.2 pg/mL and 518.2 pg/mL
  IL-10 Concentration (pg/ml), Mean: 562.7 pg/mL
IL-10; [6]
  IL-10 Concentration: 464.2 pg/mL and 545.0 pg/mL and 436.9 pg/mL
  IL-10 Concentration (pg/ml), Mean: 482.0 pg/mL
IL-10; [7]
  LPS-induced IL-10 (in words): significantly reduced
